For one assay, the target named is Carbonic anhydrase 14 (Homo sapiens, UniProt Q9ULX7). Put plainly: Inhibition of human recombinant carbonic anhydrase14 transmembrane isoform expressed in Escherichia coli BL21 preincubated for 15 mins by stopped-flow CO2 hydration assay.
Another assay deals with Carbonic anhydrase 13 (Homo sapiens, UniProt Q8N1Q1). Put plainly: Inhibition of human recombinant carbonic anhydrase13 cytosolic isoform expressed in Escherichia coli BL21 preincubated for 15 mins by stopped-flow CO2 hydration assay.
Carbonic anhydrase 13, sequence (Q8N1Q1 whole entry, canonical isoform): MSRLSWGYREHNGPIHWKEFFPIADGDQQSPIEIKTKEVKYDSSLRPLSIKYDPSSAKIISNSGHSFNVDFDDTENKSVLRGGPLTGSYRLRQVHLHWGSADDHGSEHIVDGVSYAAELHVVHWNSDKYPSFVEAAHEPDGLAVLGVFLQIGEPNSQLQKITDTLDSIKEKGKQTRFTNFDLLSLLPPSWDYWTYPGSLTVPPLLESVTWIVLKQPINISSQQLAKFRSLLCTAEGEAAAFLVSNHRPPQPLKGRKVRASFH
The target of a further assay is Carbonic anhydrase 12 (Homo sapiens, UniProt O43570). Put plainly: Inhibition of human recombinant carbonic anhydrase12 transmembrane isoform expressed in Escherichia coli BL21 preincubated for 15 mins by stopped-flow CO2 hydration assay.
Carbonic anhydrase 12, sequence (O43570 whole entry, canonical isoform): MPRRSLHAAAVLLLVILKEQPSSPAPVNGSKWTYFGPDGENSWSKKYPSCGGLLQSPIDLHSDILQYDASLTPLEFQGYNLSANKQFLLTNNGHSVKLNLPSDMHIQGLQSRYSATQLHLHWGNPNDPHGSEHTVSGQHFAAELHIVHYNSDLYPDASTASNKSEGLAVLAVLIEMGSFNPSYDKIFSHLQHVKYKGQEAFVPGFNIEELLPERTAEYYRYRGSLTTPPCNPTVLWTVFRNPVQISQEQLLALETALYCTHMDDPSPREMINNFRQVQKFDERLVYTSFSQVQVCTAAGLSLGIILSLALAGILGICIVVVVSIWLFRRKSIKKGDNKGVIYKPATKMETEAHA
For another assay, the target named is Carbonic anhydrase 9 (Homo sapiens, UniProt Q16790). Put plainly: Inhibition of human recombinant carbonic anhydrase9 transmembrane isoform expressed in Escherichia coli BL21 preincubated for 15 mins by stopped-flow CO2 hydration assay.
For the next assay, the target named is Carbonic anhydrase 7 (Homo sapiens, UniProt P43166). Put plainly: Inhibition of human recombinant carbonic anhydrase7 cytosolic isoform expressed in Escherichia coli BL21 preincubated for 15 mins by stopped-flow CO2 hydration assay.
Carbonic anhydrase 7, sequence (P43166 whole entry, canonical isoform): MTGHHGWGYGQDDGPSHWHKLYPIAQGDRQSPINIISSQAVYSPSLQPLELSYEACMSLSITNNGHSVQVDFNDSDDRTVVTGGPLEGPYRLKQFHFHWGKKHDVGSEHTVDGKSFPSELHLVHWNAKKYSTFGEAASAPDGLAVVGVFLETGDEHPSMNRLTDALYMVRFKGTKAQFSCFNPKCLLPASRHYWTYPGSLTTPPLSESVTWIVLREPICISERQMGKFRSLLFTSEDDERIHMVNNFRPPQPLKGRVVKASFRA
In another assay the target is Carbonic anhydrase 6 (Homo sapiens, UniProt P23280). Put plainly: Inhibition of human recombinant carbonic anhydrase6 secreted isoform expressed in Escherichia coli BL21 preincubated for 15 mins by stopped-flow CO2 hydration assay.
Carbonic anhydrase 6, sequence (P23280 whole entry, canonical isoform): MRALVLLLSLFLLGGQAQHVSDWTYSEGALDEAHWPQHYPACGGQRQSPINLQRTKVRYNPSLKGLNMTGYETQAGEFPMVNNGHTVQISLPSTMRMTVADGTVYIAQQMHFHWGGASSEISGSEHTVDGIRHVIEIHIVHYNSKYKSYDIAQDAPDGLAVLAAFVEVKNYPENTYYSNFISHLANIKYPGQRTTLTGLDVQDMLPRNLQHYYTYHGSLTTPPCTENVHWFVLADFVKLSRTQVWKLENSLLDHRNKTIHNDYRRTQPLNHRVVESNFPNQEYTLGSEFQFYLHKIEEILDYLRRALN
The target in assay [1] is Carbonic anhydrase 5A, mitochondrial (Homo sapiens, UniProt P35218). Put plainly: Inhibition of human recombinant carbonic anhydrase5A mitochondrial isoform expressed in Escherichia coli BL21 preincubated for 15 mins by stopped-flow CO2 hydration assay.
Carbonic anhydrase 5A, mitochondrial, sequence (P35218 whole entry, canonical isoform): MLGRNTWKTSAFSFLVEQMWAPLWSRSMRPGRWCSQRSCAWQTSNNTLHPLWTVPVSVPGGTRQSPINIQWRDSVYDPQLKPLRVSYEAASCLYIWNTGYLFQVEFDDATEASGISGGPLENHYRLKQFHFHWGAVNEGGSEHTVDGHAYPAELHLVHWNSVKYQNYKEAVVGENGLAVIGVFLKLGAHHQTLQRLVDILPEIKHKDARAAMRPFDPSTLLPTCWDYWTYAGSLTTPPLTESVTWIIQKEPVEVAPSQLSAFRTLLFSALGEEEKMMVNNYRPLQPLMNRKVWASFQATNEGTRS
The target in another assay is Carbonic anhydrase 4 (Homo sapiens, UniProt P22748). Put plainly: Inhibition of human recombinant carbonic anhydrase4 membrane-bound isoform expressed in Escherichia coli BL21 preincubated for 15 mins by stopped-flow CO2 hydration assay.
Carbonic anhydrase 4, sequence (P22748 whole entry, canonical isoform): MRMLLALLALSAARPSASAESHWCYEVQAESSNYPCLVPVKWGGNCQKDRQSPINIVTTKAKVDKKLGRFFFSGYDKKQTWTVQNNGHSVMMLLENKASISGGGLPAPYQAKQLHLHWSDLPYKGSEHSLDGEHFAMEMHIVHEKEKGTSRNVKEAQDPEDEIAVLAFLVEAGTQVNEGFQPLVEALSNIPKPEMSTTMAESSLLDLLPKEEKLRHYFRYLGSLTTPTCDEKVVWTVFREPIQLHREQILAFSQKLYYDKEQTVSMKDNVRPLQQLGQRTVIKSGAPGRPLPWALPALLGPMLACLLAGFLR
A further assay deals with Carbonic anhydrase 3 (Homo sapiens, UniProt P07451). Put plainly: Inhibition of human recombinant carbonic anhydrase3 cytosolic isoform expressed in Escherichia coli BL21 preincubated for 15 mins by stopped-flow CO2 hydration assay.
Carbonic anhydrase 3, sequence (P07451 whole entry, canonical isoform): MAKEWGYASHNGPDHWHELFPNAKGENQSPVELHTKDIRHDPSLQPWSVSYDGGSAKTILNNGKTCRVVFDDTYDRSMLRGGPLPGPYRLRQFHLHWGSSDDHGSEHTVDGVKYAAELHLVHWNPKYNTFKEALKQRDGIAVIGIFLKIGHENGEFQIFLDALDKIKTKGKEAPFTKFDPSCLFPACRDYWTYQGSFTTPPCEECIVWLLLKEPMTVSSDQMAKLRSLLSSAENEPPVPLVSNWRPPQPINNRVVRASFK
For another assay, the target named is Carbonic anhydrase 2 (Homo sapiens, UniProt P00918). Put plainly: Inhibition of human recombinant carbonic anhydrase2 cytosolic isoform expressed in Escherichia coli BL21 preincubated for 15 mins by stopped-flow CO2 hydration assay.
The target in another assay is Carbonic anhydrase 1 (Homo sapiens, UniProt P00915). Put plainly: Inhibition of human recombinant carbonic anhydrase1 cytosolic isoform expressed in Escherichia coli BL21 preincubated for 15 mins by stopped-flow CO2 hydration assay.
Carbonic anhydrase 1, sequence (P00915 whole entry, canonical isoform): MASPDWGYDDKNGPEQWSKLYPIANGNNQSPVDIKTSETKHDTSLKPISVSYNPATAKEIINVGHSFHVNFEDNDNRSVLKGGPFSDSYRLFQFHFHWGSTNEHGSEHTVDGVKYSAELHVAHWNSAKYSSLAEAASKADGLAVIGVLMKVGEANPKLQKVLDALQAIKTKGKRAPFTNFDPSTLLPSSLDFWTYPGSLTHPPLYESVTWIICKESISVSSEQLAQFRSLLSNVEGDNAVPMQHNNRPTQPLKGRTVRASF

Carbonic anhydrase 14, sequence (Q9ULX7 whole entry, canonical isoform): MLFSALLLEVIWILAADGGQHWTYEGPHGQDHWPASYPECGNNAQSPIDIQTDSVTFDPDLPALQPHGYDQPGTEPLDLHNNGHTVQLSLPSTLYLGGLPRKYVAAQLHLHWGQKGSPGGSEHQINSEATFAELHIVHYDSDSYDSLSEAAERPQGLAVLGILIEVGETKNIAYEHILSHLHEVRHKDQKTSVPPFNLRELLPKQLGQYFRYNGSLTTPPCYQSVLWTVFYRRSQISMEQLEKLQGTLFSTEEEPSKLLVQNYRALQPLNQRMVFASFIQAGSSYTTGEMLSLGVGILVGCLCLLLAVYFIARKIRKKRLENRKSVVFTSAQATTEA

In the case of `COC(=O)CNc1nc(F)nc(NCCc2ccc(S(N)(=O)=O)cc2)n1`, the Ki (commonly the equilibrium dissociation constant of an inhibitor or competing ligand from its target) on Carbonic anhydrase 14 was 214 nM; on Carbonic anhydrase 13, 602 nM; at Carbonic anhydrase 12, 5 nM; at Carbonic anhydrase 9, 199 nM; at Carbonic anhydrase 7, 6.5 nM; at Carbonic anhydrase 6 it was 167 nM. Besides, the inhibitory constant (Ki) was 650 nM in assay [1]; 2740 nM on Carbonic anhydrase 4; 6860 nM on Carbonic anhydrase 3; 5.6 nM on Carbonic anhydrase 2; 81.5 nM on Carbonic anhydrase 1.

For the molecule `NS(=O)(=O)c1ccc(CCNc2nc(F)nc(F)n2)cc1`, the Ki at Carbonic anhydrase 14 is 42 nM; at Carbonic anhydrase 13, 470 nM; on Carbonic anhydrase 12, 4.6 nM; on Carbonic anhydrase 7, 21.9 nM; on Carbonic anhydrase 6, 1390 nM; in [1], greater than 10000 nM. Also, the inhibition constant Ki on Carbonic anhydrase 4 was determined as 1360 nM; on Carbonic anhydrase 3, 7010 nM; on Carbonic anhydrase 2 it was 7.1 nM; on Carbonic anhydrase 1, 203 nM.

As for `NS(=O)(=O)c1ccc(Nc2nc(F)nc(F)n2)cc1`, the inhibition constant Ki at Carbonic anhydrase 13 is 1030 nM; at Carbonic anhydrase 12, 10 nM; at Carbonic anhydrase 7, 6.2 nM; at Carbonic anhydrase 2, 4.9 nM; on Carbonic anhydrase 1, 88 nM.

With `CNc1nc(F)nc(Nc2ccc(S(N)(=O)=O)cc2)n1`, the Ki on Carbonic anhydrase 13 was 735 nM; at Carbonic anhydrase 12 it was 15.4 nM; at Carbonic anhydrase 9, 228 nM; on Carbonic anhydrase 7, 6.7 nM; at Carbonic anhydrase 2, 5.4 nM; at Carbonic anhydrase 1, 90 nM.

Consider `NS(=O)(=O)c1ccc(CCNc2nc(F)nc(NCC(=O)O)n2)cc1`, for which the Ki at Carbonic anhydrase 14 was 126 nM; on Carbonic anhydrase 13 it was greater than 10000 nM; at Carbonic anhydrase 12, 4.5 nM; on Carbonic anhydrase 9 it was 214 nM; on Carbonic anhydrase 7, 8.3 nM; on Carbonic anhydrase 6, 148 nM. Besides, the Ki was 915 nM in assay [1]; 3660 nM on Carbonic anhydrase 4; 9020 nM at Carbonic anhydrase 3; 5 nM on Carbonic anhydrase 2; 250 nM on Carbonic anhydrase 1.

Turning to `CNc1nc(NC)nc(Nc2ccc(S(N)(=O)=O)cc2)n1`, the inhibition constant Ki on Carbonic anhydrase 13 was 921 nM; at Carbonic anhydrase 7, 45 nM.

Take `NS(=O)(=O)c1ccc(Nc2nc(F)nc(NCCO)n2)cc1`: the Ki at Carbonic anhydrase 13 is greater than 10000 nM; on Carbonic anhydrase 12 it was 17.5 nM; at Carbonic anhydrase 9, 208 nM; on Carbonic anhydrase 7 it was 8.5 nM; on Carbonic anhydrase 2, 5.5 nM; on Carbonic anhydrase 1, 238 nM.

Source of the values: ChEMBL document CHEMBL2439988, “Inhibition of human carbonic anhydrase isoforms I-XIV with sulfonamides incorporating fluorine and 1,3,5-triazine moieties” (Bioorg Med Chem, 2013).
